# Assay results from paper PMC10309190, “A PI(3,5)P2 reporter reveals PIKfyve activity and dynamics on macropinosomes and phagosomes” (The Journal of Cell Biology, 2023).
# Experiments:
# [1] = target: T1, 2xPX (2xPX-GFP, tandem repeat of the SnxA PX domain) (Dictyostelium discoideum, UniProt Q54GY1); experiment: microscopy of GFP recruitment to membrane-coated beads, probe titration; assay type: binding; details: 5 mol% phosphoinositide in 95 mol% POPC bilayers on silica beads; 150 mM NaCl, 20 mM Hepes, 0.5 mM TCEP, room temperature; acyl chains not given; avidity of tandem domains; read-out: apparent Kd
# T1 construct: gene DDB_G0289833; N-terminal 6xHis and eGFP kept; E. coli BL21; single population, apparent 104 kD by mass photometry
# [2] = target: T2, SnxA (full-length SnxA-GFP; DDB_G0289833) (Dictyostelium discoideum, UniProt Q54GY1); experiment: as above; assay type: binding; details: 5 mol% phosphoinositide in 95 mol% POPC bilayers on silica beads; 150 mM NaCl, 20 mM Hepes, 0.5 mM TCEP, room temperature; acyl chains not given; avidity of dimer; read-out: apparent Kd
# T2 construct: full length (PX domain plus coiled coil); N-terminal 6xHis and eGFP kept; E. coli BL21; mostly dimer, apparent 181 kD by mass photometry
# T2 sequence (Q54GY1 1-186): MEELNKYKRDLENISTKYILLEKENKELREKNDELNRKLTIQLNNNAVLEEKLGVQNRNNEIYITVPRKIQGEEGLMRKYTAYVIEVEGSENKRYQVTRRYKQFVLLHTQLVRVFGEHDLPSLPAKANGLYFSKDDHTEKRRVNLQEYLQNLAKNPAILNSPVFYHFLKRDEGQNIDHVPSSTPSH
# [3] = target: full-length SnxA, recombinant N-terminal 6xHis and eGFP fusion (Dictyostelium discoideum); experiment: mass photometry; recombinant GFP fusions diluted to 25-50 nM in 250 mM NaCl, 20 mM Hepes, 0.5 M TCEP (so in the source) immediately before measurement; OneMP mass photometer; monomer to dimer
Substance,Kd [1] [nM],Kd [2] [nM],percent of the protein at the dimer's apparent mass [3] [%],stoichiometry N [3]
"PI(3,5)P2",218 ± 7,187 ± 13,–,–
"full-length SnxA, recombinant N-terminal 6xHis and eGFP fusion (natural protein)",–,–,85,2
